Data published in patent US11434205B2, “Substituted imidazole carboxylate derivatives and the use thereof” (priority 2018, dated 2022).
Read-outs that look alike come from different tables or passages of the source.

How the values were obtained:
rats [1] = format: in vivo, rat; settings: rats of the MAP/HR figures, 2×ED50, tail vein
rats [2] = format: in vivo, rat; settings: for recovery time of the test animals' righting reflex: rats of the MAP/HR figures, 2×ED50, tail vein, same value in min
Experimental: The Effects of the Compounds on the Circulatory Function were Measured in Rats Using a Small Animal Implanted Physiological Signal Telemetry System
The anesthetic activity of the compounds was assessed in rats using a LORR assay and the up and down method was used to determine ED50. […] A small animal implantable physiological signal telemetry system from DSI (Data Science International, Inc.) was used to measure the changes in heart rate (HR) and blood pressure in rats during 30 min after administration. Then mean arterial pressure (MAP) and HR were used as representative indicators to determine hemodynamic stability of the compounds of the present invention in rats.
A small animal implantable physiological signal telemetry system from DSI (Data Science International, Inc.) including implants (RATHD-521, DSI, United States), receiver boards (RPC-1, DSI, United States), signal conversion devices (DEM, DSI, USA), perfusion glue (DSI, USA), fibrin membrane (DSI, USA), etc.
First, animal models were established. A left ventricular catheter, an abdominal aortic catheter and ECG wires were placed into rats. At least one week after surgery, data were recorded.
Administration procedure: rats were put into a restraint device with a 20 G indwelling catheter placed into a lateral tail vein. After administration of 0.2 mL heparin, a pre-filled extension tube was attached and taped to the tail vein to secure the extension tube. Then the rats were removed from the restraint device to a cage before placing them together on the signal receiver. […] Finally, the pharmacological effects, adverse reactions, and behavioural manifestations of the rats were observed and recorded
Data collection: After setting the data collection parameters on the software, the power of the implant was turned on to start data collection. In this experiment, data recording frequency was set to 15 s. Data collection was continuously recorded for 30 min before and after administration of the drugs in rats. After data acquisition, the test was stopped.

[3] = test system: secretion of cortisol, H295R cell line; assay: cells; format: cell-based; settings: for EC50: Homo sapiens, NCI-H295R, read-out: EC50 (Cortisol)
Experimental: (§1) The Effects of the Compounds on Adrenocortical Function In Vitro Test
(§2) Then secretion of the cortisol and corticosterone in the supernatant, was measured using HPLC-MS/MS method to determine whether the compounds of the present invention had adrenotoxic potential.

[4] = test system: secretion of corticosterone, H295R cell line; assay: cells; format: cell-based; settings: for EC50: Homo sapiens, NCI-H295R, read-out: EC50 (Corticosterone)
Experimental: as §1, §2

rats [5] = settings: for Recovery time after stopping infusion: after 1 hour infusion at 2×MIR; for Adverse reactions: Tremor (incidence): continuous infusion 2×MIR; for Onset time: emulsion, continuous infusion at 2×MIR
Experimental: Pharmacological Effects of the Compounds on Continuous Infusion in Rats
Adult male Sprague-Dawley rats with body weight ranging from 250 to 300 gm were selected for continuous infusion test. […] Time to recovery of righting reflex from stopping infusion, and time to fully awake from stopping infusion were recorded.

[6] = H295R cell line, 0.1-10000 nM, HPLC-MS/MS, Table D3
[7] = H295R cell line, 0.1-10000 nM, HPLC-MS/MS, Table E3

| SMILES | recovery time of the test animals' righting reflex (rats [1]) | recovery time of the test animals' righting reflex (rats [2]) | EC50 [3] | EC50 [4] | further results |
| --- | --- | --- | --- | --- | --- |
| CC(=O)COC(=O)c1cncn1[C@H](C)c1ccccc1 [Compound C6] | 120 s | 2.0 min | – | – | – |
| CC(=O)C(C)(C)OC(=O)c1cncn1[C@H](C)c1ccccc1 [Compound C8] | 170 s | 2.83 min | – | – | – |
| C=C(OCC)C1(OC(=O)c2cncn2[C@H](C)c2ccccc2)COC1 [Compound D2] | 355 s | 5.92 min | > 1000 nM | > 1000 nM | Cortisol as an indicator to determine the presence of inhibition [3, 6]: 0; Corticosterone as an indicator to determine the presence of inhibition [4, 6]: 0 |
| C=CC1(OC(=O)c2cncn2[C@H](C)c2ccccc2)CCCCC1 [Compound D35] | 200 s | 3.33 min | > 1000 nM | > 1000 nM | Cortisol as an indicator to determine the presence of inhibition [3, 6]: 0; Corticosterone as an indicator to determine the presence of inhibition [4, 6]: 0 |
| CC(=O)C(C)(C)SC(=O)c1cncn1[C@H](C)c1ccccc1 [Compound C22] | 93 s | 1.55 min | – | – | – |
| C=CC#CC(C)OC(=O)c1c(Cl)ncn1[C@H](C)c1ccccc1 (stereo partly drawn) [Compound E121] | 184 s | 3.07 min | – | – | – |
| COCC1(COC(=O)c2c(Cl)ncn2[C@H](C)c2ccccc2)CCC1 [Compound E102] | 288 s | 4.80 min | > 10000 nM | > 10000 nM | Cortisol as an indicator to determine the presence of inhibition [3, 7]: 0; Corticosterone as an indicator to determine the presence of inhibition [4, 7]: 0 |
| C[C@H](c1ccccc1)n1cncc1C(=O)OCC1(C=O)COC1 [Compound C12] | – | – | > 1000 nM | > 1000 nM | Cortisol as an indicator to determine the presence of inhibition ([3]; H295R, Table C3): 0; Corticosterone as an indicator to determine the presence of inhibition ([4]; H295R, Table C3): 0 |
| CSCC1(CSC(=O)c2cncn2[C@H](C)c2ccccc2)CCC1 [Compound A46] | – | – | > 100 nM | > 100 nM | Cortisol as an indicator to determine the presence of inhibition ([3]; H295R, Table A3): 0; Corticosterone as an indicator to determine the presence of inhibition ([4]; H295R, Table A3): 0 |
| CCOC(=O)c1c(C(F)(F)F)ncn1[C@H](C)c1ccccc1 [Compound E164] | 77 s | 1.28 min | > 10000 nM | > 10000 nM | Cortisol as an indicator to determine the presence of inhibition [3, 7]: 0; Corticosterone as an indicator to determine the presence of inhibition [4, 7]: 0 |
| C[C@H](c1ccccc1)n1cncc1C(=O)SC1CCC1 [Compound A29] | 255 s | 4.25 min | – | – | – |
| C[C@H](c1ccccc1)n1cncc1C(=O)OCC[S+](C)[O-] (stereo partly drawn) [Compound C10] | – | – | > 10000 nM | > 10000 nM | Cortisol as an indicator to determine the presence of inhibition ([3]; H295R, Table C3): 0; Corticosterone as an indicator to determine the presence of inhibition ([4]; H295R, Table C3): 0 |
| CC(=O)C1(COC(=O)c2cncn2[C@H](C)c2ccccc2)CCC1 [Compound C11] | – | – | > 1000 nM | > 1000 nM | Cortisol as an indicator to determine the presence of inhibition ([3]; H295R, Table C3): 0; Corticosterone as an indicator to determine the presence of inhibition ([4]; H295R, Table C3): 0 |
| C[C@H](c1ccccc1)n1cncc1C(=O)OC[S+](C)[O-] (stereo partly drawn) [Compound C9] | – | – | > 10000 nM | > 10000 nM | Cortisol as an indicator to determine the presence of inhibition ([3]; H295R, Table C3): 0; Corticosterone as an indicator to determine the presence of inhibition ([4]; H295R, Table C3): 0 |
| CC(=O)C(C)(C)OC(=O)c1c(C(F)(F)F)ncn1[C@H](C)c1ccccc1 [Compound E160] | 65 s | 1.08 min | > 10000 nM | > 10000 nM | Cortisol as an indicator to determine the presence of inhibition [3, 7]: 0; Corticosterone as an indicator to determine the presence of inhibition [4, 7]: 0 |
| CC(=O)CC(C)(C)OC(=O)c1cncn1[C@H](C)c1ccccc1 [Compound C13] | – | – | > 10000 nM | > 10000 nM | Cortisol as an indicator to determine the presence of inhibition ([3]; H295R, Table C3): 0; Corticosterone as an indicator to determine the presence of inhibition ([4]; H295R, Table C3): 0 |
| CC(=O)C1(OC(=O)c2cncn2[C@H](C)c2ccccc2)CCC1 [Compound C2] | 182 s | 3.03 min | – | – | – |
| CC(=O)C1(COC(=O)c2cncn2[C@H](C)c2ccccc2)CC1 [Compound C4] | – | – | > 1000 nM | > 1000 nM | Cortisol as an indicator to determine the presence of inhibition ([3]; H295R, Table C3): 0; Corticosterone as an indicator to determine the presence of inhibition ([4]; H295R, Table C3): 0 |
| C[C@H](c1ccccc1)n1cncc1C(=O)SCC1CCC1 [Compound A27] | 126 s | 2.10 min | – | – | – |
| C[C@H](c1ccccc1)n1cncc1C(=O)OCC1CC1 [Compound A15] | 193 s | 3.22 min | – | – | Recovery time after stopping infusion (rats [5]): 12 to 15 min; Adverse reactions: Tremor (incidence) (rats [5]): Tremor (5/6); Onset time (rats [5]): 2 to 3 min |
| CC(=O)C1(COC(=O)c2cncn2[C@H](C)c2ccccc2)COC1 [Compound C5] | – | – | > 1000 nM | > 1000 nM | Cortisol as an indicator to determine the presence of inhibition ([3]; H295R, Table C3): 0; Corticosterone as an indicator to determine the presence of inhibition ([4]; H295R, Table C3): 0 |
| CC(=O)CCSC(=O)c1cncn1[C@H](C)c1ccccc1 [Compound C23] | 206 s | 3.43 min | – | – | – |
| C[C@H](c1ccccc1)n1cncc1C(=O)SCC1CC(F)(F)C1 [Compound A45] | 200 s | 3.33 min | – | – | – |
| C[C@H](c1ccccc1)n1cncc1C(=O)OCC1(CO)CC1 [Compound A7] | 110 s | 1.83 min | – | – | Recovery time after stopping infusion (rats [5]): 7 to 9 min; Adverse reactions: Tremor (incidence) (rats [5]): Tremor (4/6); Onset time (rats [5]): 2 to 3 min |
| C/C=C/C1(OC(=O)c2cncn2[C@H](C)c2ccccc2)CCC1 [Compound D20] | – | – | > 10000 nM | > 10000 nM | Cortisol as an indicator to determine the presence of inhibition [3, 6]: 0; Corticosterone as an indicator to determine the presence of inhibition [4, 6]: 0 |
| CC(C)c1cccc(C(C)C)c1O [propofol, reference compound] | 645 s | 10.75 min | – | – | effect on the circulatory function (MAP, HR) (rats [2]; rats, 2×ED50, 30 min after administration): significant inhibition of the circulatory function |
| C[C@H](c1ccccc1)n1cncc1C(=O)OC(C)(C)C1OC1(C)C (stereo partly drawn) [Compound B25] | – | – | > 1000 nM | – | Cortisol as an indicator to determine the presence of inhibition ([3]; H295R, Table B3): 0; Corticosterone as an indicator to determine the presence of inhibition ([4]; H295R, Table B3): 0 |
| C[C@H](c1ccccc1)n1cnc(F)c1C(=O)OC1(C=C=S)CCCCC1 [Compound E23] | 92 s | 1.53 min | – | – | – |
